In patent US20260021046A1, “LIPID NANOPARTICLE AND PHARMACEUTICAL COMPOSITION” (NATIONAL UNIVERSITY CORPORATION HOKKAIDO UNIVERSITY, priority 2022, published 2026):

Tests used:
[1] = Average particle size, PDI, zeta potential (dynamic light scattering) and RNA encapsulation efficiency (RiboGreen) of lipid nanoparticles; assay type: physicochemical
Protocol: The average particle size, particle size distribution, and zeta potential of the lipid nanoparticles were measured using a Zetasizer Nano ZS (Malvern Instruments Ltd, UK) by dynamic light scattering and the form of lipid nanoparticle was measured using a transmission electron-microscope as described in NPL 12. The efficiency of mRNA encapsulation was estimated by RiboGreen fluorometry as described in NPL 13. Although the respective values vary depending on the type of pH-sensitive cationic lipid, the composition of the lipids constituting the lipid nanoparticles, the preparation conditions of the lipid nanoparticles, and the like, the average particle size of the lipid nanoparticles was in the range of 80 to 350 nm, the PDI was in the range of 0.05 to 0.4, the zeta potential was in the range of −16 to +5 mV, and the efficiency of mRNA encapsulation was 75 to 95%. • [NPL 12] Mahmoud A. Younis, et al., “A Multifunctional Lipid-Based Nanodevice for the Highly Specific Codelivery of Sorafenib and Midkine siRNA to Hepatic Cancer Cells”, Molecular Pharmaceutics, Vol. 16, pp. 4031-4044 • [NPL 13] Mahmoud M. Abd Elwakil, et al., “Engineered &-decalactone lipomers bypass the liver to selectively in vivo deliver mRNA to the lungs without targeting ligands”, Materials Horizons, Vol. 8, pp. 2251-2259
The average particle size, particle size distribution, and zeta potential of the lipid nanoparticles were measured in the same manner as in Example 1 to estimate the efficiency of SMO-siRNA encapsulation. The relationship between the flow rate ratio of the aqueous phase to the organic phase, the average particle size, particle size distribution, zeta potential, and SMO-siRNA encapsulation efficiency of the lipid nanoparticles prepared at the same flow rate ratio when CL15H6 was used as the pH-sensitive cationic lipid is shown in Table 3 below. In the subsequent experiments, lipid nanoparticles were prepared at a ratio of 4:1 (aqueous phase: organic phase), which provided the highest encapsulation efficiency, the smallest average particle size, and the smallest PDI.

[2] = system: activated hepatic stellate cell line LX-2; assay: EGFP mRNA delivery and transfection screening by FACS; assay type: cell-based; settings: LX-2 cells; EGFP mRNA lipid nanoparticles, 250 ng mRNA per well
Protocol: Fourteen types of lipid nanoparticles prepared were screened with activated hepatic stellate cell line LX-2 (Merck (Germany) and hepatocyte line FL83B (ATCC, USA).
Twenty-four hours prior to the experiment, cells were seeded in 6-well plates at 1×10^5 cells/well and incubated at 37° C. The medium was aspirated and the cells were washed with (−) PBS and then treated with lipid nanoparticles encapsulating EGFP mRNA (TriLink BioTechnologies, USA) in 1.5 ml of growth medium for 24 hours. The amount of mRNA per well was 250 ng. Cells were then washed with (−) PBS and incubated in fresh medium for an additional 21 hours. The median fluorescence intensity of EGFP and the percentage of transfected cells were evaluated by fluorescence activated cell sorting (FACS) using a flow cytometer (Cytoflex, Beckman Coulter, USA).

normal mice = assay: Biological safety in normal mice (serum markers, histopathology); assay type: in vivo; settings: CL15A6 lipid nanoparticles with EGFP mRNA, 2 mg/kg RNA iv, 24 hours
Protocol: In order to exclude the effects of liver fibrosis on hepatic function and tissues, the biosafety of the lipid nanoparticle prepared by using CL15A6 was evaluated in normal mice. Lipid nanoparticles containing EGFP mRNA were administered intravenously to mice at an amount of 2 mg/kg RNA per kg body weight. Twenty-four hours after the administration, the mice were euthanized, and serum and major organs were collected and analyzed in comparison with control mice treated with HEPES buffer. Aspartate transaminase (AST), alanine aminotransferase (ALT), and creatinine (CRE), which are functional markers of the liver or kidney, in plasma were colorimetrically quantified using a commercially available kit (Sigma-Aldrich), and the results were compared. In addition, the collected organs were fixed, stained with hematoxylin and eosin, and histopathologically evaluated as described in NPL 17. • [NPL 17] Mahmoud A. Younis, et al., “Ultra-small lipid nanoparticles encapsulating sorafenib and midkine-siRNA selectively-eradicate sorafenib-resistant hepatocellular carcinoma in vivo”, J Control Release, Vol. 331, pp. 335-349

SMO mRNA = assay: In vivo SMO mRNA knockdown in liver tissue by qRT-PCR; set-up: species or system mice; settings: SMO-siRNA lipid nanoparticles, 0.5 mg/kg RNA iv, 24 hours, versus HEPES buffer control
Protocol: TAA-induced liver fibrosis model mice were prepared in the same manner as in Example 1, and SMO-siRNA-encapsulated lipid nanoparticles were intravenously administered to the mice via the tail vein so that the amount of RNA per kg of body weight was 0.5 mg/kg. 24 hours after the administration, the mouse livers were collected. The ratio of the amount of SMO mRNA to the amount of GAPDH mRNA in the liver tissue was confirmed by qRT-PCR. The SMO gene is expressed only in hepatic stellate cells in the liver.
Next, a lipid composition containing CL15H6 and SMO-siRNA were mixed in different ratios to prepare lipid nanoparticles with different nitrogen/phosphate (N/P) ratios. Specifically, lipid nanoparticles were prepared with N/P ratios of 0.5, 1, 2, 4, 8, 12, 16, and 20. The prepared lipid nanoparticles were intravenously administered to mice with liver fibrosis so that the amount of RNA per kg of body weight was 0.5 mg/kg, and the ratio of the amount of SMO mRNA to the amount of GAPDH mRNA in the liver tissue was confirmed 24 hours later.
Next, the relationship between the dosage amount of SMO-siRNA and the ratio of the amount of SMO mRNA to the amount of GAPDH mRNA in the liver tissue was examined. For comparison, the relationship between the dosage amount of control siRNA (siCtrl) and the ratio of SMO mRNA to GAPDH mRNA in hepatic stellate cells was also examined.
Lipid nanoparticles encapsulating a mixture of the above SMO-siRNA and TGFβ1-siRNA at a ratio of 1:1 were prepared by using CL15H6, the above SMO-siRNA (SEQ ID NOs: 1 and 2) targeting the mRNA of the SMO gene and the TGFβ1-siRNA (SEQ ID NOS: 3 and 4) targeting the mRNA of the TGFβ1 gene and having the sequence shown in Table 4 below. The prepared lipid nanoparticles were intravenously administered to mice with liver fibrosis so that each of the amounts of SMO-siRNA and of TGFβ1-siRNA per kg of body weight was 0.25 mg/kg, and 24 hours later, the ratios of the amounts of SMO mRNA and of TGFβ1 mRNA to the amount of GAPDH mRNA in the liver tissue was confirmed.

[3] = lipid nanoparticles CL15A6:DOPE:cholesterol:DMG-PEG2K 5:3:2:0.3

particle size ([1]; CL15A6 mRNA lipid nanoparticles, DMG-PEG2K 1.5 mol %): 100 nm | Average particle size ([1]; CL15A6 mRNA lipid nanoparticles, N/P ratio increased from 4 to 8): 80 nm | Average particle size [1, 3]: 80 nm | PDI [1, 3]: < 0.1
SMILES: CCCCC/C=C\C/C=C\CCCCCCCCC(O)(CCCCCCCC/C=C\C/C=C\CCCCC)CCCCOC(=O)C1CCN(C)CC1 [CL15A6, (14z,17z)-5-hydroxy-5-((9z,12z)-octadeca-9,12-dien-1-yl)tricosa-14,17-dien-1-yl 1-methylpiperidine-4-carboxylate]
mRNA delivery efficiency (median fluorescence intensity of EGFP) [2]: high and promising | transfection efficiency (percentage of transfected cells) [2]: promising | ALT (normal mice): no significant increases | AST (normal mice): no significant increases | CRE (normal mice): no significant increases | histopathology of major organs (liver, lung, heart, and kidney) (normal mice): no signs of injury | amount of SMO mRNA (ratio to GAPDH mRNA) in liver tissue (SMO mRNA): significantly reduced
